The target in one assay is CDK2/Cyclin E1 (Homo sapiens (Human), UniProt P24941). In words: biochemical. As to conditions: CDK2_Ki (nM), phosphorylated CDK2/Cyclin E1, 150 μM ATP, Morrison tight-binding fit.
The target of the next assay is CDK6/Cyclin D1 (Homo sapiens (Human), UniProt Q00534). As to the kind of experiment: biochemical. As to conditions: CDK6_Ki (nM), non-phosphorylated CDK6/Cyclin D1, 2 mM ATP, Morrison fit.
CDK6/Cyclin D1, sequence (Q00534 whole entry): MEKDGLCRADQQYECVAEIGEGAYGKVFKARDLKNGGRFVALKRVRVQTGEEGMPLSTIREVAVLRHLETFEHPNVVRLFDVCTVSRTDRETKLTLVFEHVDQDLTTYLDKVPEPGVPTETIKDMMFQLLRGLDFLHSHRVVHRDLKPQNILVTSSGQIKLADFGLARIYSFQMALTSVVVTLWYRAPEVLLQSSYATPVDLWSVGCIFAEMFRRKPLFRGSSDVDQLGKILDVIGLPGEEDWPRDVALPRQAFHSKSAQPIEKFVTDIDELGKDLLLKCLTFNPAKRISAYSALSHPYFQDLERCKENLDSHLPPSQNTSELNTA
CDK6/Cyclin D1, sequence (P24385 whole entry partner): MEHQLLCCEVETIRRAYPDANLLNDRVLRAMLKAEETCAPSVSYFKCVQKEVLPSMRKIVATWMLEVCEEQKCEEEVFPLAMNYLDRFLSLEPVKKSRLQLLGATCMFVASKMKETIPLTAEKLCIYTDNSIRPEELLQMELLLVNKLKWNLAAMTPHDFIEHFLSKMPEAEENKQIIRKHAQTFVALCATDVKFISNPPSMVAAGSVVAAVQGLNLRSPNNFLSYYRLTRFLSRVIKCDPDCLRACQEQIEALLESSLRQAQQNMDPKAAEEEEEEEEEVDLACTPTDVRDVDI

Description for CDK2/Cyclin E1: The assay was initiated with the addition of ATP, following a fifteen minutes pre-incubation of enzyme and inhibitor at room temperature in the reaction mixture. The reaction was stopped after 45 minutes at room temperature by the addition of 50 μL of 80 mM EDTA, pH 7.5.

Regarding `Cc1cc2cnc(NC3CCN(S(=O)(=O)C(F)(F)F)CC3)nc2n([C@@H]2CCC[C@@]2(C)O)c1=O` (single isomer, unassigned) [Example 181, (−)-8-[(1R*,2R*)-2-hydroxy-2-methylcyclopentyl]-6-methyl-2-({1-[(trifluoromethyl)sulfonyl]piperidin-4-yl}amino)pyrido[2,3-d]pyrimidin-7(8H)-one], the Ki (as a rule, the equilibrium dissociation constant of an inhibitor or competing ligand from its target) amounted to 1.32 nM on CDK2/Cyclin E1 and 0.85 nM on CDK6/Cyclin D1.
The corresponding values for `Cc1cc2cnc(NC3CCN(S(=O)(=O)C(F)(F)F)CC3)nc2n([C@H]2CCC[C@]2(C)O)c1=O` (single isomer, unassigned) [Example 182, (+)-8-[(1R*,2R*)-2-hydroxy-2-methylcyclopentyl]-6-methyl-2-({1-[(trifluoromethyl)sulfonyl]piperidin-4-yl}amino)pyrido[2,3-d]pyrimidin-7(8H)-one] are 12.6 nM and 9.5 nM.
`C[C@@]1(O)CCC[C@H]1n1c(=O)ccc2cnc(NC3CCN(S(N)(=O)=O)CC3)nc21` (single isomer, unassigned) [Example 183, (−)-4-({8-[(1R*,2R*)-2-hydroxy-2-methylcyclopentyl]-7-oxo-7,8-dihydropyrido[2,3-d]pyrimidin-2-yl}amino)piperidine-1-sulfonamide]: the Ki at CDK2/Cyclin E1 amounted to 0.1 nM; at CDK6/Cyclin D1, 1.99 nM.
On the same counts, the results for `C[C@]1(O)CCC[C@@H]1n1c(=O)ccc2cnc(NC3CCN(S(N)(=O)=O)CC3)nc21` (single isomer, unassigned) [Example 184, (+)-4-({8-[(1R*,2R*)-2-hydroxy-2-methylcyclopentyl]-7-oxo-7,8-dihydropyrido[2,3-d]pyrimidin-2-yl}amino)piperidine-1-sulfonamide] are 1.46 nM and 11.8 nM.
On the same counts, the results for `C[C@@]1(O)CCC[C@H]1n1c(=O)c(CO)cc2cnc(NC3CCN(S(C)(=O)=O)CC3)nc21` (single isomer, unassigned) [Example 185, (−)-6-(hydroxymethyl)-8-[(1R*,2R*)-2-hydroxy-2-methylcyclopentyl]-2-{[1-(methylsulfonyl)piperidin-4-yl]amino}pyrido[2,3-d]pyrimidin-7(8H)-one] are 0.43 nM and 0.38 nM.
Turning to `C[C@]1(O)CCC[C@@H]1n1c(=O)c(CO)cc2cnc(NC3CCN(S(C)(=O)=O)CC3)nc21` (single isomer, unassigned) [Example 186, (+)-6-(hydroxymethyl)-8-[(1R*,2R*)-2-hydroxy-2-methylcyclopentyl]-2-{[1-(methylsulfonyl)piperidin-4-yl]amino}pyrido[2,3-d]pyrimidin-7(8H)-one], the Ki at CDK2/Cyclin E1 amounted to 5.65 nM; on CDK6/Cyclin D1, 3.62 nM.
On the same counts, the results for `C[C@@]1(O)CCC[C@H]1n1c(=O)c(C(F)F)cc2cnc(NC3CCN(S(N)(=O)=O)CC3)nc21` (single isomer, unassigned) [Example 187, (−)-4-({6-(difluoromethyl)-8-[(1R*,2R*)-2-hydroxy-2-methylcyclopentyl]-7-oxo-7,8-dihydropyrido[2,3-d]pyrimidin-2-yl}amino)piperidine-1-sulfonamide] are 0.08 nM and 0.29 nM.
As to `C[C@]1(O)CCC[C@@H]1n1c(=O)c(C(F)F)cc2cnc(NC3CCN(S(N)(=O)=O)CC3)nc21` (single isomer, unassigned) [Example 188, (+)-4-({6-(difluoromethyl)-8-[(1R*,2R*)-2-hydroxy-2-methylcyclopentyl]-7-oxo-7,8-dihydropyrido[2,3-d]pyrimidin-2-yl}amino)piperidine-1-sulfonamide], the Ki on CDK2/Cyclin E1 amounted to 0.7 nM; at CDK6/Cyclin D1, 2.4 nM.
On the same counts, the results for `C[C@@]1(O)CCC[C@H]1n1c(=O)c(Cl)cc2cnc(N[C@H]3CCN(S(C)(=O)=O)C[C@H]3F)nc21` (single isomer, unassigned) [Example 191, (−)-6-chloro-2-{[(3R*,4S*)-3-fluoro-1-(methylsulfonyl)piperidin-4-yl]amino}-8-[(1R,2R)-2-hydroxy-2-methylcyclopentyl]pyrido[2,3-d]pyrimidin-7(8H)-one] are 0.4 nM and 0.58 nM.
`C[C@@]1(O)CCC[C@H]1n1c(=O)c(Cl)cc2cnc(N[C@@H]3CCN(S(C)(=O)=O)C[C@@H]3F)nc21` (single isomer, unassigned) [Example 192, (+)-6-chloro-2-{[(3R*,4S*)-3-fluoro-1-(methylsulfonyl)piperidin-4-yl]amino}-8-[(1R,2R)-2-hydroxy-2-methylcyclopentyl]pyrido[2,3-d]pyrimidin-7(8H)-one]: the Ki at CDK2/Cyclin E1 came to 20.9 nM; on CDK6/Cyclin D1, 10.1 nM.
For the molecule `CC[C@@]1(O)CCC[C@H]1n1c(=O)ccc2cnc(NC3CCN(S(C)(=O)=O)CC3)nc21` (single isomer, unassigned) [Example 193, (−)-(8-[(1R*,2R*)-2-ethyl-2-hydroxycyclopentyl]-2-{[1-(methylsulfonyl)piperidin-4-yl]amino}pyrido[2,3-d]pyrimidin-7(8H)-one], the Ki was determined as 2.55 nM at CDK2/Cyclin E1 and 2.27 nM on CDK6/Cyclin D1.
On the same counts, the results for `CC[C@]1(O)CCC[C@@H]1n1c(=O)ccc2cnc(NC3CCN(S(C)(=O)=O)CC3)nc21` (single isomer, unassigned) [Example 194, (+)-(8-[(1R*,2R*)-2-ethyl-2-hydroxycyclopentyl]-2-{[1-(methylsulfonyl)piperidin-4-yl]amino}pyrido[2,3-d]pyrimidin-7(8H)-one] are 4.01 nM and 5.37 nM.
The corresponding values for `CC[C@@]1(O)CCC[C@H]1n1c(=O)c(Cl)cc2cnc(NC3CCN(S(C)(=O)=O)CC3)nc21` (single isomer, unassigned) [Example 195, (−)-6-chloro-8-[(1R*,2R*)-2-ethyl-2-hydroxycyclopentyl]-2-{[1-(methylsulfonyl)piperidin-4-yl]amino}pyrido[2,3-d]pyrimidin-7(8H)-one] are 5.49 nM and 4.68 nM.
On the same counts, the results for `CC[C@]1(O)CCC[C@@H]1n1c(=O)c(Cl)cc2cnc(NC3CCN(S(C)(=O)=O)CC3)nc21` (single isomer, unassigned) [Example 196, (+)-6-chloro-8-[(1R*,2R*)-2-ethyl-2-hydroxycyclopentyl]-2-{[1-(methylsulfonyl)piperidin-4-yl]amino}pyrido[2,3-d]pyrimidin-7(8H)-one] are 5.72 nM and 3.84 nM.
Turning to `Cc1cc2cnc(NC3CCN(S(C)(=O)=O)CC3)nc2n([C@@H]2COC[C@@]2(C)O)c1=O` (single isomer, unassigned) [Example 197, (−)-8-[(3R*,4S*)-4-hydroxy-4-methyltetrahydrofuran-3-yl]-6-methyl-2-{[1-(methylsulfonyl)piperidin-4-yl]amino}pyrido[2,3-d]pyrimidin-7(8H)-one], the results for the Ki on CDK2/Cyclin E1 and at CDK6/Cyclin D1 were 4.26 nM and 4.78 nM, respectively.
The corresponding values for `Cc1cc2cnc(NC3CCN(S(C)(=O)=O)CC3)nc2n([C@H]2COC[C@]2(C)O)c1=O` (single isomer, unassigned) [Example 198, (+)-8-[(3R*,4S*)-4-hydroxy-4-methyltetrahydrofuran-3-yl]-6-methyl-2-{[1-(methylsulfonyl)piperidin-4-yl]amino}pyrido[2,3-d]pyrimidin-7(8H)-one] are 26.9 nM and 31 nM.
On the same counts, the results for `Cc1cc2cnc(NC3CCN(S(C)(=O)=O)CC3)nc2n([C@@H]2C[C@H](O)C[C@@H]2C)c1=O` (single isomer, unassigned) [Example 199, (−)-8-[(1R*,2S*,4R*)-4-hydroxy-2-methylcyclopentyl]-6-methyl-2-{[1-(methylsulfonyl)piperidin-4-yl]amino}pyrido[2,3-d]pyrimidin-7(8H)-one] are 2.92 nM and 1.09 nM.
The corresponding values for `Cc1cc2cnc(NC3CCN(S(C)(=O)=O)CC3)nc2n([C@H]2C[C@@H](O)C[C@H]2C)c1=O` (single isomer, unassigned) [Example 200, (+)-8-[(1R*,2S*,4R*)-4-hydroxy-2-methylcyclopentyl]-6-methyl-2-{[1-(methylsulfonyl)piperidin-4-yl]amino}pyrido[2,3-d]pyrimidin-7(8H)-one] are 9.51 nM and 4.72 nM.
`C[C@@H]1[C@H](O)CC[C@H]1n1c(=O)ccc2cnc(NC3CCN(S(C)(=O)=O)CC3)nc21` (single isomer, unassigned) [Example 201, (−)-8-[(1R*,2S*,3R*)-3-hydroxy-2-methylcyclopentyl]-2-{[1-(methylsulfonyl)piperidin-4-yl]amino}pyrido[2,3-d]pyrimidin-7(8H)-one]: the Ki at CDK2/Cyclin E1 was found to be 0.12 nM; on CDK6/Cyclin D1, 0.85 nM.
On to `C[C@H]1[C@@H](O)CC[C@@H]1n1c(=O)ccc2cnc(NC3CCN(S(C)(=O)=O)CC3)nc21` (single isomer, unassigned) [Example 202, (+)-8-[(1R*,2S*,3R*)-3-hydroxy-2-methylcyclopentyl]-2-{[1-(methylsulfonyl)piperidin-4-yl]amino}pyrido[2,3-d]pyrimidin-7(8H)-one], for which the Ki is 0.8 nM at CDK2/Cyclin E1 and 2.44 nM on CDK6/Cyclin D1.
The corresponding values for `C[C@@H]1[C@H](O)CC[C@H]1n1c(=O)c(Cl)cc2cnc(NC3CCN(S(C)(=O)=O)CC3)nc21` (single isomer, unassigned) [Example 203, (−)-6-chloro-8-[(1R*,2S*,3R*)-3-hydroxy-2-methylcyclopentyl]-2-{[1-(methylsulfonyl)piperidin-4-yl]amino}pyrido[2,3-d]pyrimidin-7(8H)-one] are 0.51 nM and 1.53 nM.
On the same counts, the results for `C[C@@H]1[C@H](O)CC[C@H]1n1c(=O)c(C(F)F)cc2cnc(NC3CCN(S(C)(=O)=O)CC3)nc21` (single isomer, unassigned) [Example 204, (−)-6-(difluoromethyl)-8-[(1R*,2S*,3R*)-3-hydroxy-2-methylcyclopentyl]-2-{[1-(methylsulfonyl)piperidin-4-yl]amino}pyrido[2,3-d]pyrimidin-7(8H)-one] are 0.51 nM and 0.18 nM.
